Test results published in US9924719B2, “Pyridazine compound” (Sumitomo Chemical Company, Limited, priority 2014, dated 2018).

Assays:
Assay type in all cases: in vivo
[1] = tested on: housefly (Musca domestica); assay: Test Example 9: treated filter paper with sucrose bait, housefly, 500 ppm; settings: 0.7 mL on filter paper, female adult housefly, after 24 hours
Experimental: Each formulation comprising the Present compound 5, 17, 25, 26, 27, 31, 35, 36, 37 or 38, or the N-oxide 3, the N-oxide 4, or the N-oxide 5 prepared by the process according to the Formulation example 5 was diluted with water until the concentration of the active ingredient reached 500 ppm to prepare a test chemical solution.
The bottom of the polyethylene cup having 5.5 cm diameter was matted with the same size of a filter paper, and 0.7 mL of the test chemical solution was added dropwise to the filter paper, and 30 mg sucrose as bait was placed in the cup uniformly. Ten (10) heads of female adult housefly (Musca domestica) were released into the polyethylene cup, and the cup was covered with a lid. After 24 hours, the life and death of housefly was investigated, and the number of dead insects was counted, and the mortality of insects was calculated by the following equation. Mortality of insects (%)=(the number of dead insects/the number of test insects)×100

[2] = tested on: cucurbit leaf beetle (Aulacophora femoralis); assay: Test Example 11: spray on cucumber seedling, cucurbit leaf beetle larvae, 50 ppm; settings: 120 h, Formulation example 1, spray 30 mL/cup on cucumber, second instar larvae, 25° C., 5 days, read-out: morality of insects
Experimental: Meanwhile, cucumber seedling (on the developmental stage of the third true leaf) was planted in a polyethylene cup, and each of the test chemical solution was sprayed into the seedling in a ratio of 30 mL/cup. After the test chemical solution was dried, the second leaf thereof was cut out, and then installed into a 200 mL cup. Ten (10) heads of the second instar larvae of cucurbit leaf beetle (Aulacophora femoralis) were released into the cup, and the cup was covered with a lid. After the cup was stored at 25° C. for 5 days, the number of the dead insects was counted, and the mortality of insects was calculated by the following equation. Morality (%)−{the number of the dead insects/the number of the test isects}×100

[3] = tested on: house mosquito (Culex pipiens pallens); assay: Test Example 10: house mosquito larvae in treated water; settings: 0.7 mL of 500 ppm solution in 100 ml water (3.5 ppm), last instar larvae, after 1 day
Experimental: The formulation comprising the Present compounds 4 prepared by the process according to the Formulation example 5 was diluted with water until the concentration of the active ingredient reached 500 ppm to prepare a test chemical solution.
Zero point seven(0.7) mL of the testg chemical solution was added to ion-changed water 100 ml (the concentrataion of the active ingredient was 3.5 ppm). Twently (20) heads of the last instar larvae of […] house mosquito (Culex pipiens pallens) were released […], and after 1 day, the life and death of house mosquito was investigated, and the number of dead insects was counted, and the mortality of insects was calculated by the following equation. Mortality of insects (%)=(the number of the dead insects/the number of the test insects)×100

[4] = tested on: cotton aphid (Aphis gossypii); assay: Test Example 2: foliar spray on cucumber seedling infested with cotton aphid, 200 ppm; settings: 144 h, spray 20 mL/seedling on cucumber, 6 days after spraying, read-out: controlling value
[5] = tested on: cotton aphid (Aphis gossypii); assay: Test Example 1: foliar spray on cucumber seedling infested with cotton aphid, 500 ppm; settings: 144 h, spray 20 mL/seedling on cucumber, 6 days after spraying, read-out: controlling value
[6] = tested on: cabbage moth (Plutella xylostella); assay: Test Example 8: spray on cabbage seedling, cabbage moth larvae, 200 ppm; settings: 120 h, spray 20 mL/cup on cabbage, 2nd instar larvae, 25° C., 5 days, read-out: morality of insects
Experimental: (§1) Meanwhile, cabbage seedling (on the developmental stage of the third true leaf) was planted in a polyethylene cup, and each of the test chemical solution was sprayed into the cabbage seedling in a ratio of 20 mL/cup. After the test chemical solution was dried, the stem and leaf thereof was cut out and then installed into a 50 mL cup. Five (5) heads of 2nd instar larvae of cabbage moth (Plutella xylostella) were released into the cup, and the cup was covered with a lid. After the cup was stored at 25° C. for 5 days, the number of the dead insects was counted, and the mortality of insects was calculated by the following equation. Morality (%)=(1−the number of the surviving insects/the number of the test insects)×100

[7] = tested on: cabbage moth (Plutella xylostella); assay: Test Example 7: spray on cabbage seedling, cabbage moth larvae, 500 ppm; settings: 120 h, spray 20 mL/cup on cabbage, 2nd instar larvae, 25° C., 5 days, read-out: morality of insects
Experimental: as §1, with “[…]” for “surviving”

[8] = tested on: brown planthopper (Nilaparvata lugens); assay: Test Example 5: spray on rice seedling, brown planthopper, 200 ppm; settings: 144 h, 10 mL spray on rice seedling, 3rd to 4th instar larvae, after 6 days, 25° C., read-out: controlling value

Compound	morality of insects [1] [%]	pest or weed control at 50 ppm [2] [%]	insect mortality [3] [%]	pest or weed control at 200 ppm [4] [%]	pest or weed control at 500 ppm [5] [%]	pest or weed control at 200 ppm [6] [%]	pest or weed control at 500 ppm [7] [%]	pest or weed control at 200 ppm [8] [%]
CCS(=O)(=O)c1cccnc1-c1n[n+]([O-])c(OCC(F)(F)C(F)(F)F)cc1C [N-oxide 3]	100	–	–	–	–	–	–	–
CCS(=O)(=O)c1cc(C(F)(F)F)cnc1-c1ccc(OCC(F)(F)C(F)(F)F)[n+]([O-])n1 [N-oxide 4]	100	–	–	–	–	–	–	–
CCS(=O)(=O)c1cc(C(F)(F)F)cnc1-c1ccc(OCC(F)(F)C(F)F)[n+]([O-])n1 [N-oxide 5]	100	–	–	–	–	–	–	–
CCS(=O)(=O)c1cc(C(F)(F)F)ccc1-c1ccc(OCC(F)(F)F)nn1 [Present compound 1]	–	≥ 85	–	–	–	–	–	–
CCS(=O)(=O)c1cccnc1-c1ccc(OCC(Cl)(Cl)Cl)nn1 [Present compound 4]	–	≥ 85	≥ 95	≥ 90	≥ 90	–	–	–
CCS(=O)(=O)c1cccnc1-c1ccc(OCC(F)(F)F)nn1 [Present compound 5]	100	–	–	–	–	–	–	–
CCS(=O)(=O)c1cccnc1-c1ccc(OCC(F)(F)C(F)F)nn1 [Present compound 8]	–	≥ 85	–	≥ 90	≥ 90	≥ 80	≥ 80	≥ 90
CCS(=O)(=O)c1cccnc1-c1ccc(OCC(F)(F)C(F)(F)C(F)(F)F)nn1 [Present compound 17]	100	–	–	–	–	–	–	–
CCS(=O)(=O)c1cccnc1-c1ccc(OCC(C)(C(F)(F)F)C(F)(F)F)nn1 [Present compound 25]	100	–	–	–	–	–	–	–
CCC(Oc1ccc(-c2ncccc2S(=O)(=O)CC)nn1)C(F)(F)F (stereo not drawn) [Present compound 26]	100	–	–	–	–	–	–	–
CCSc1cccnc1-c1ccc(OCC(F)(F)C(F)(F)F)nn1 [Present compound 27]	100	≥ 85	–	≥ 90	≥ 90	≥ 80	≥ 80	≥ 90
CCS(=O)(=O)c1cc(C(F)(F)F)cnc1-c1ccc(OCC(F)(F)C(F)(F)F)nn1 [Present compound 28]	–	≥ 85	–	≥ 90	–	≥ 80	–	≥ 90
CC[S+]([O-])c1cccnc1-c1ccc(OCC(F)(F)C(F)(F)F)nn1 (stereo not drawn) [Present compound 29]	–	≥ 85	–	≥ 90	≥ 90	–	–	≥ 90
CCS(=O)(=O)c1cccnc1-c1nnc(OCC(F)(F)C(F)(F)F)cc1C [Present compound 30]	–	–	–	–	–	≥ 80	–	–
CCS(=O)(=O)c1cc(C(F)(F)F)cnc1-c1ccc(OCC(F)(F)C(F)F)nn1 [Present compound 31]	100	–	–	–	–	–	–	–
CCS(=O)(=O)c1cccnc1-c1cc(C(F)(F)F)c(OCC(F)(F)C(F)F)nn1 [Present compound 33]	–	–	–	–	≥ 90	≥ 80	≥ 80	–
CCS(=O)(=O)c1cccnc1-c1cc(C(F)(F)F)c(OCC(F)(F)C(F)(F)F)nn1 [Present compound 34]	–	≥ 85	–	–	≥ 90	≥ 80	≥ 80	–
CCS(=O)(=O)c1cccnc1-c1cc(C)c(OCC(F)(F)C(F)F)nn1 [Present compound 35]	100	≥ 85	–	≥ 90	≥ 90	≥ 80	≥ 80	≥ 90
CCS(=O)(=O)c1cccnc1-c1cc(C)c(OCC(F)(F)C(F)(F)F)nn1 [Present compound 36]	100	–	–	≥ 90	≥ 90	≥ 80	≥ 80	≥ 90
CC[S+]([O-])c1cccnc1-c1cc(C)c(OCC(F)(F)C(F)F)nn1 (stereo not drawn) [Present compound 37]	100	–	–	≥ 90	≥ 90	–	≥ 80	≥ 90
CC[S+]([O-])c1cccnc1-c1cc(C)c(OCC(F)(F)C(F)(F)F)nn1 (stereo not drawn) [Present compound 38]	100	–	–	≥ 90	≥ 90	≥ 80	≥ 80	≥ 90
